From PubChem BioAssay (NCI)
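96-well plates; 48 h exposure; 5 concentrations. Endpoints by linear interpolation between flanking doses. Not reached: highest tested concentration assigned. TGI is the concentration that stops growth completely.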

Tested on: OVCAR-5 ovarian
Assay: DTP human tumour cell line panel, 48 h

| SMILES | TGI [µM] |
| --- | --- |
| O=C1C=CC(=O)c2c1ccc1c3ccccc3n(CCCCCn3c4ccccc4c4ccc5c(c43)C(=O)C=CC5=O)c21 | > 78.1 |
| C=C(Cl)C(=CCl)CCC(Br)C(C)(C)Cl (mixture of isomers) | > 10 |
| Nc1ccc2c(c1)C(=O)N1CCC[C@H]1C(=O)N2 | > 100 |
| Cc1ccc(/C=N/Nc2cc(C)c3cccc(C)c3n2)s1 | 28.2 |
| CC(=O)N(C(C)=O)c1ncc(-n2nc(-c3ccccc3)cc2-c2ccccc2)c(-c2ccccc2)n1 | > 10 |
| CN1C(=O)c2ccccc2OC12C=Cc1c(ccc3ccccc13)O2 (centres undefined) | 27.4 |
| CO/N=C(\C(=O)OC(=NC1CCCCC1)NC1CCCCC1)c1csc(NC(c2ccccc2)(c2ccccc2)c2ccccc2)n1 | > 10 |
| O=C1Sc2cc3ccccc3cc2C(=O)Sc2ccc(Br)cc21 | 25.5 |
| Cc1ccc2c(c1)C(=S)N1CSCC1c1nncn1-2 (centres undefined) | > 100 |
| CC(C)NC(=O)OCc1c(COC(=O)NC(C)C)c(-c2cc[n+](COC(=O)C3CC3)cc2)n2c1CCC2 | > 100 |
| COC(=O)C1=C(C(=O)OC)N(c2ccc(OC)cc2[N+](=O)[O-])C(c2ccc(C)cc2)=CC1c1ccc(OC)cc1OC (centres undefined) | > 100 |
| COc1cccc(C2c3cc4c(cc3OC(N3CCCCC3)C2C)OCO4)c1O (centres undefined) | 57.7 |
| O=C1c2ccccc2C(=O)c2c(NCC(O)CO)ccc(NCC(O)CO)c21 (centres undefined) | > 100 |
| CC1=C(C)CC2C(=O)N(c3cc(C(C)(C)C)ccc3C(C)(C)C)C(=O)C2C1 (centres undefined) | > 100 |
| O=[N+]([O-])c1ccc(CN(CCCl)OCCCl)cc1 | > 100 |
| CC1=NN(c2nc(N)nc(/C(C#N)=C\c3ccc([N+](=O)[O-])s3)n2)C(C)(C)C1 | 21.5 |
| O=c1[nH]cnc2c1cnn2Cc1cn(CCCCO)nn1 | > 100 |
| C/C=C/C(CC(O)(C(F)(F)F)C(F)(F)F)=N/NC(N)=S | > 10 |
| O=C1/C(=C/c2ccc(Br)s2)NC(=S)N1c1ccccc1 | > 100 |
| CN1CCc2c([nH]c3ccccc23)C1 | > 100 |
| O=C(N/N=C(\c1ccccc1)c1ccccn1)NC1CCCCC1 | > 100 |
| CCO/C(O)=C(/C(=N)N1CCOCC1)C(=O)Nc1ccc(F)cc1 | > 100 |
| COc1cc(Nc2nc3ccccc3nc2C(=O)O)cc(OC)c1OC | > 100 |

Tested on: BT-549 breast
Assay: DTP human tumour cell line panel, 48 h

| SMILES | TGI [µM] |
| --- | --- |
| Cc1ccc(S(=O)(=O)c2[nH]cc(/C(=C\C3CCCCC3)[N+](=O)[O-])c2C2CCCCC2)cc1 | 0.813 |
| O=C1C=CC(=O)c2c1ccc1c3ccccc3n(CCCCCn3c4ccccc4c4ccc5c(c43)C(=O)C=CC5=O)c21 | 82 |
| C=C(Cl)C(=CCl)CCC(Br)C(C)(C)Cl (mixture of isomers) | > 10 |
| Nc1ccc2c(c1)C(=O)N1CCC[C@H]1C(=O)N2 | > 100 |
| Cc1ccc(/C=N/Nc2cc(C)c3cccc(C)c3n2)s1 | 20.8 |
| CC(=O)N(C(C)=O)c1ncc(-n2nc(-c3ccccc3)cc2-c2ccccc2)c(-c2ccccc2)n1 | > 10 |
| CN1C(=O)c2ccccc2OC12C=Cc1c(ccc3ccccc13)O2 (centres undefined) | > 56.6 |
| CO/N=C(\C(=O)OC(=NC1CCCCC1)NC1CCCCC1)c1csc(NC(c2ccccc2)(c2ccccc2)c2ccccc2)n1 | > 10 |
| O=C1Sc2cc3ccccc3cc2C(=O)Sc2ccc(Br)cc21 | 12.1 |
| Cc1ccc2c(c1)C(=S)N1CSCC1c1nncn1-2 (centres undefined) | > 100 |
| CC(C)NC(=O)OCc1c(COC(=O)NC(C)C)c(-c2cc[n+](COC(=O)C3CC3)cc2)n2c1CCC2 | > 100 |
| COC(=O)C1=C(C(=O)OC)N(c2ccc(OC)cc2[N+](=O)[O-])C(c2ccc(C)cc2)=CC1c1ccc(OC)cc1OC (centres undefined) | > 100 |
| COc1cccc(C2c3cc4c(cc3OC(N3CCCCC3)C2C)OCO4)c1O (centres undefined) | 54.9 |
| O=C1c2ccccc2C(=O)c2c(NCC(O)CO)ccc(NCC(O)CO)c21 (centres undefined) | > 100 |
| CC1=C(C)CC2C(=O)N(c3cc(C(C)(C)C)ccc3C(C)(C)C)C(=O)C2C1 (centres undefined) | > 100 |
| O=[N+]([O-])c1ccc(CN(CCCl)OCCCl)cc1 | > 100 |
| CC1=NN(c2nc(N)nc(/C(C#N)=C\c3ccc([N+](=O)[O-])s3)n2)C(C)(C)C1 | 2.44 |
| O=c1[nH]cnc2c1cnn2Cc1cn(CCCCO)nn1 | > 100 |
| C/C=C/C(CC(O)(C(F)(F)F)C(F)(F)F)=N/NC(N)=S | > 10 |
| O=C1/C(=C/c2ccc(Br)s2)NC(=S)N1c1ccccc1 | > 100 |
| CN1CCc2c([nH]c3ccccc23)C1 | > 100 |
| O=C(N/N=C(\c1ccccc1)c1ccccn1)NC1CCCCC1 | > 100 |
| CCO/C(O)=C(/C(=N)N1CCOCC1)C(=O)Nc1ccc(F)cc1 | > 100 |
| COc1cc(Nc2nc3ccccc3nc2C(=O)O)cc(OC)c1OC | > 100 |

Tested on: A549 NSCLC
Assay: DTP human tumour cell line panel, 48 h

| SMILES | TGI [µM] |
| --- | --- |
| Cc1ccc(S(=O)(=O)c2[nH]cc(/C(=C\C3CCCCC3)[N+](=O)[O-])c2C2CCCCC2)cc1 | 6.59 |
| O=C1C=CC(=O)c2c1ccc1c3ccccc3n(CCCCCn3c4ccccc4c4ccc5c(c43)C(=O)C=CC5=O)c21 | > 100 |
| C=C(Cl)C(=CCl)CCC(Br)C(C)(C)Cl (mixture of isomers) | > 10 |
| Nc1ccc2c(c1)C(=O)N1CCC[C@H]1C(=O)N2 | > 100 |
| Cc1ccc(/C=N/Nc2cc(C)c3cccc(C)c3n2)s1 | 26.3 |
| CC(=O)N(C(C)=O)c1ncc(-n2nc(-c3ccccc3)cc2-c2ccccc2)c(-c2ccccc2)n1 | > 10 |
| CN1C(=O)c2ccccc2OC12C=Cc1c(ccc3ccccc13)O2 (centres undefined) | 40.1 |
| CO/N=C(\C(=O)OC(=NC1CCCCC1)NC1CCCCC1)c1csc(NC(c2ccccc2)(c2ccccc2)c2ccccc2)n1 | > 10 |
| O=C1Sc2cc3ccccc3cc2C(=O)Sc2ccc(Br)cc21 | 30.9 |
| Cc1ccc2c(c1)C(=S)N1CSCC1c1nncn1-2 (centres undefined) | > 100 |
| CC(C)NC(=O)OCc1c(COC(=O)NC(C)C)c(-c2cc[n+](COC(=O)C3CC3)cc2)n2c1CCC2 | > 100 |
| COC(=O)C1=C(C(=O)OC)N(c2ccc(OC)cc2[N+](=O)[O-])C(c2ccc(C)cc2)=CC1c1ccc(OC)cc1OC (centres undefined) | 65.3 |
